According to US10214507B2, “Carbazole-containing amides, carbamates, and ureas as cryptochrome modulators” (Reset Therapeutics, Inc., priority 2014, dated 2019):

Experiments:
[1] = system: core clock and gluconeogenic gene mRNAs in liver of C57Bl/6J DIO mice; experiment: 24 hour gene expression study, liver mRNA by RT-qPCR, C57Bl/6J DIO mice; type: in vivo, mouse; conditions: 50 mg/kg BID PO
Description: Male C57Bl/6J DIO mice were purchased at 17 weeks of age (The Jackson Laboratory, Sacramento, Calif.) and acclimated for a 2 week period before being used for the experiment. Overall group size was 15 per treatment, divided into 5 time-points to give a final group size of 3 mice.
In total, each mouse received 5 doses of compound over the course of the experiment. Mice were weighed and randomly assigned to each treatment based on weight the evening before the commencement of the study. Beginning on Day 3 at 3:00 PM, a group of animals from the vehicle and Compound 72-treated groups were euthanized using CO2 asphyxiation, 50 mg of liver, epididymal fat, and skeletal muscle, respectively, were excised and placed in tube containing 500 μl of RNALater. This procedure took place for the remainder of the time-point groups at their given harvest times. Plasma samples were also taken for each animal and frozen, to be used for later measurement of compound levels.
E.Z.N.A.® HP Total RNA Isolation Kits (R6812-01 and the protocol described in the Manual, Revised 2010) were utilized to prepare and isolate RNA from the liver samples. To prepare the RNA samples, 10-30 mg of sample was removed from RNA-Later and placed in a 1.5 ml microfuge tube. GTC lysis buffer (700 μl) was added to the tissue, which was homogenized with a rotor-stator homogenizer (e.g. Tissue-Tearor, Model #985370 BioSpec Products with 4.5 mm probe, Cat. #985370-04), and then centrifuged at full speed (>13,000×g) for 5 minutes. The cleared supernatant was transferred by pipetting to a DNA Clearance Column Pre-inserted in a 2 mL Collection Tube. The assembled column was centrifuged at 13,000×g for 1 minute, and the flow-through was saved. An equal volume (700 μl) of 70% ethanol was added to the lysate and mixed. The sample was then applied to a HiBind RNA spin column placed into a 2 ml collection tube, which was centrifuged at 10,000×g for 60 seconds at room temperature. RNA Wash Buffer I (250 μl) was added by pipetting directly onto a new HiBind RNA column inserted in a 2 ml collection tube. The assembled column was centrifuged at 10,000×g for 60 seconds. The RNA column was placed into a new 2 ml collection tube. DNase I stock solution is pipetted (75 μl) directly onto the surface of the HiBind RNA resin in each column (Using DNAse Digestion with RNase Free DNase Set (E1091): for each HiBind RNA column, the DNase I stock solution was prepared as followed: E.Z.N.A.® DNase I Digestion Buffer 73.5μl, RNase Free DNase I (20 Kunitz/μl) 1.5 μl=Total Volume 75 μl.). The column with bound RNA was incubated at room temperature (25-30° C.) for 15 minutes. RNA Wash Buffer I (500 μl) was added to the column and placed on a bench top for 2 minutes. After centrifuging at 10,000×g for 60 seconds, discarding the flow-through, 500 μl of RNA Wash Buffer II was added and centrifuged at 10,000×g for 60 seconds. Another 500 μl of RNA Wash Buffer II was added and the column assembly was centrifuged at 10,000×g for 60 seconds. The column was centrifuged for 2 minutes at maximum speed to completely dry the HiBind matrix. The column was placed in a clean 1.5 ml microcentrifuge tube and 40-70 μl of molecular biology grade water is added. […]
RediPlate 96 RiboGreen RNA Quantification Kit (Invitrogen) RediPlate standard curve was prepared by transferring 20 μl reconstituted RNA standard to a RediPlate well reconstituted in 180 μl RediPlate TE buffer. […]

C57/Bl6J DIO mice [2] = experiment: Increasing dosages of Compound 72 for 7 days in diet-induced obesity mouse model; type: in vivo
Description: (§1) Male C57/Bl6J DIO mice were obtained from The Jackson Laboratory (Sacramento, Calif.). […] Animals were accustomed to these conditions for at least 2 weeks before experimentation and used at approximately 24 weeks of age.
(§2) Significance was accepted when p<0.05.
Male C57/Bl6J DIO mice were obtained from The Jackson Laboratory (Sacramento, Calif.). […] Animals were accustomed to these conditions for at least 2 weeks before experimentation and used at approximately 26 weeks of age.

C57/Bl6J DIO mice [3] = experiment: 7 day dosing in diet-induced obesity (DIO) mouse model; type: in vivo; conditions: 100 mg/kg PO 7 days
Description: as §1, §2

[4] = system: core clock gene mRNAs in livers of ICR mice; experiment: Four day study, liver clock gene mRNA by RT-qPCR, ICR mice; type: in vivo, mouse; conditions: 50 mg/kg PO BID 4 days
Protocol: Male ICR mice (weighing 30-35 g), obtained from Charles River Laboratories (Hollister, CA), were used for the experiment following at least 3 days of acclimation. Mice were dosed with vehicle (WFI or 10% Kolliphor) or compound (50 mg/kg, dose volume 5 mL/kg, PO) for 4 days BID (twice a day), beginning in the afternoon of the first day. The last dose of compound or vehicle was administered on the morning of harvest. On the day of harvest (6 hours following the final dose), mice were euthanized by CO2 asphyxiation and 50 mg of liver tissue was excised and placed in a tube containing 500 μl of RNA later.
E.Z.N.A.® HP Total RNA Isolation Kits (R6812-01 and the protocol described in the Manual, Revised 2010) were utilized to prepare and isolate RNA from the liver samples. To prepare the RNA samples, 10-30 mg of sample was removed from RNA-Later and placed in a 1.5 ml microfuge tube. GTC lysis buffer (700 μl) was added to the tissue, which was homogenized with a rotor-stator homogenizer (e.g. Tissue-Tearor, Model #985370 BioSpec Products with 4.5 mm probe, Cat. #985370-04), and then centrifuged at full speed (>13,000×g) for 5 minutes. The cleared supernatant was transferred by pipetting to a DNA Clearance Column Pre-inserted in a 2 mL Collection Tube. The assembled column was centrifuged at 13,000×g for 1 minute, and the flow-through was saved. An equal volume (700 μl) of 70% ethanol was added to the lysate and mixed. The sample was then applied to a HiBind RNA spin column placed into a 2 ml collection tube, which was centrifuged at 10,000×g for 60 seconds at room temperature. RNA Wash Buffer I (250 μl) was added by pipetting directly onto a new HiBind RNA column inserted in a 2 ml collection tube. The assembled column was centrifuged at 10,000×g for 60 seconds. The RNA column was placed into a new 2 ml collection tube. DNase I stock solution is pipetted (75 μl) directly onto the surface of the HiBind RNA resin in each column (Using DNAse Digestion with RNase Free DNase Set (E1091): for each HiBind RNA column, the DNase I stock solution was prepared as followed: E.Z.N.A.® DNase I Digestion Buffer 73.5μl, RNase Free DNase I (20 Kunitz/μl) 1.5 μl=Total Volume 75 μl.). The column with bound RNA was incubated at room temperature (25-30° C.) for 15 minutes. RNA Wash Buffer I (500 μl) was added to the column and placed on a bench top for 2 minutes. After centrifuging at 10,000×g for 60 seconds, discarding the flow-through, 500 μl of RNA Wash Buffer II was added and centrifuged at 10,000×g for 60 seconds. Another 500 μl of RNA Wash Buffer II was added and the column assembly was centrifuged at 10,000×g for 60 seconds. The column was centrifuged for 2 minutes at maximum speed to completely dry the HiBind matrix. The column was placed in a clean 1.5 ml microcentrifuge tube and 40-70 μl of molecular biology grade water is added. After sitting for 1 minute, the column was centrifuged for 2 minutes at maximum speed to elute the RNA. The isolated RNA was collected into the collection tube.
RediPlate 96 RiboGreen RNA Quantification Kit (Invitrogen) RediPlate standard curve was prepared by transferring 20 μl reconstituted RNA standard to a RediPlate well reconstituted in 180 μl RediPlate TE buffer. For liver RNAs prepared from 30-100 mg of tissue using a kit similar to the Omega Bio-Tek HP Total RNA Kit and eluted in RNAse-free water in a volume of 50 μl (microliters), 5 μl of the total RNA is diluted in 195 μl of RediPlate TE buffer (1:40 dilution of RNA), mix. After transferring 5 μl to RediPlate well reconstituted in 195 μl TE buffer and incubating 10 min. at RT, Fluorescence Intensity of wells with standards and samples were read in a Tecan M200 with Excitation set at 480 nm and Emission set at 520 nm with the gain set to −70%. Alternatively, one can use the FlexStation 3 with Ex 488 nm and Em 525 nm and a Cutoff of 515 nm.

O=C1NCCN1CC(O)Cn1c2ccc(F)cc2c2cc(F)ccc21 (stereo not shown) [Compound 72, 1-(3-(3,6-difluoro-9H-carbazol-9-yl)-2-hydroxypropyl)imidazolidin-2-one]
Cry2 mRNA daytime peak in liver [1]: strongly attenuated
Bmal1 mRNA in liver ([1]; at ZT8 and 32 hours after original ZT0): substantially increased
Cry1 mRNA in liver ([1]; peak of expression in dark period): suppressed
Per2 mRNA in liver over 24 hours ([1]; vs vehicle): suppressed
circadian pattern of mRNAs for gluconeogenic genes Pck1 and G6Pc ([1]; liver, relative to vehicle): substantially altered
fasting blood glucose (C57/Bl6J DIO mice [2]; 10 mg/kg QD PO 7 days): 206.8 ± 8.36 mg/dL
glucose AUC from OGTT (C57/Bl6J DIO mice [2]; 10 mg/kg QD PO 7 days): 22563+/−1224 units
fasting blood glucose (C57/Bl6J DIO mice [2]; 30 mg/kg QD PO 7 days): 197.5 ± 12.06 mg/dL
glucose AUC from OGTT (C57/Bl6J DIO mice [2]; 30 mg/kg QD PO 7 days): 19033+/−1934 units
fasting blood glucose (C57/Bl6J DIO mice [2]; 100 mg/kg QD PO 7 days): 176.3 ± 7.83 mg/dL
glucose AUC from OGTT (C57/Bl6J DIO mice [2]; 100 mg/kg QD PO 7 days): 19502+/−2404 units
HOMA-IR (C57/Bl6J DIO mice [3]): 32.54+/−3.37 units
fasting blood glucose (C57/Bl6J DIO mice [3]): 177.1 ± 8.28 mg/dL
glucose AUC calculated from the OGTT (C57/Bl6J DIO mice [3]): 17055+/−769.1
plasma insulin at t=0 (C57/Bl6J DIO mice [3]): 3.12 ± 0.24 ng/mL
plasma insulin at t=2 hr (C57/Bl6J DIO mice [3]): 2.88 ± 0.21 ng/mL
Cry2 transcripts ([4]; ICR mice liver): decrease
increase in Bmal1 mRNA at ZT6 ([4]; ICR mice liver): 4 fold
liver Per2 expression ([4]; ICR mice, ZT6): suppression
